Assay results as given in patent US8247211B2, “Glycopeptide antibiotics” (American Cyanamid Company, priority 2001, dated 2012).

What was measured:
[1] = system: Enterococcus sp.; experiment: In vitro antibacterial evaluation: minimum inhibitory concentration (MIC), broth dilution method; format: cell-based
How it was run: (§1)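 Inoculum: 5×10^5 CFU/mL. Range: 64-0.06 μg/mL. Medium: Muller-Hinton II […]; NCCLS M7-A2 broth dilution. Endpoint: lowest concentration inhibiting growth. Strains include methicillin-, penicillin- and/or vancomycin-resistant clinical isolates.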

[2] = system: Escherichia coli; experiment: as above; format: cell-based
How it was run: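 An MIC is reported for each organism as the least concentration giving inhibition, using broth dilution over 64-0.06 μg/mL with a 5×10^5 CFU/mL inoculum.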

[3] = system: Staphylococcus sp.; experiment: as above; format: cell-based
How it was run: as §1

[4] = system: Streptococcus sp.; experiment: as above; format: cell-based
How it was run: as §1

[5] = system: Staphylococcus aureus-SMITH (GC 4543); experiment: Acute lethal infection in mice (ED50); format: in vivo; conditions: female CD-1 mice, intraperitoneal challenge, intravenous dose 30 min. after infection, 7 day survival ratios
How it was run: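 Lethal systemic infection model: female CD-1 mice, 20 ± 1-2 g, intraperitoneal challenge. Single intravenous treatment 30 min after infection; 7-day survival, pooled from 3 tests, gives ED50.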

[6] = broth dilution, 5×10^5 CFU/mL, 18 hours at 35° C.
[7] = 5×10^5 CFU/mL, 18 hours at 35° C.
[8] = strain ATCC 29213, broth dilution, 18 hours at 35° C.
[9] = strain GC 1131, broth dilution, 18 hours at 35° C.
[10] = strain GC 3051, broth dilution, 18 hours at 35° C.
[11] = strain GC 3053, broth dilution, 18 hours at 35° C.
[12] = strain GC 4541, broth dilution, 18 hours at 35° C.
[13] = strain GC 4542, broth dilution, 18 hours at 35° C.
[14] = strain GC 4543, broth dilution, 18 hours at 35° C.
[15] = strain GC 4544, broth dilution, 18 hours at 35° C.
[16] = strain GC 4545, broth dilution, 18 hours at 35° C.
[17] = strain GC 4546, broth dilution, 18 hours at 35° C.
[18] = strain GC 4547, broth dilution, 18 hours at 35° C.
[19] = strain GC 4548, broth dilution, 18 hours at 35° C.
[20] = strain GC 4549, broth dilution, 18 hours at 35° C.
[21] = strain GC 4551, broth dilution, 18 hours at 35° C.
[22] = strain GC 6257, broth dilution, 18 hours at 35° C.

COc1cccc(C2OCC3OC(OC4C(CO)OC(Oc5ccc(CC6NC(=O)C(C(C)c7ccccc7)NC(=O)CNC(=O)C(CO)NC(=O)C(C(O)C7CNC(=N)N7C7OC(CO)C(O)C(O)C7O)NC(=O)C(C(O)C7CNC(=N)N7)NC6=O)cc5)C(O)C4O)C(O)C(O)C3O2)c1 (stereo not drawn) [Example 137, Cyclo[glycyl-β-methylphenylalanyl-O-[4-O-[4,6-O-(3-methoxybenzylidene)hexopyranosyl]-hexopyranosyl]-tyrosyl-3-(2-iminoimidazolidin-4-yl)seryl-3-(3-hexopyranosyl-2-iminoimidazolidin-4-yl)serylseryl]]
4 µg/mL: MIC Enterococccus faecalis (GC 6189) [1, 6]
<0.06 µg/mL: MIC Streptococcus pneumoniae (GC 1894) [4, 6]
0.5 to 1 µg/mL: MIC Coagulase Negative Staphylococcus (GC 4549) [3, 6] | MIC Coagulase Negative Staphylococcus (GC 4549) [3, 20]
1 to 2 µg/mL: MIC Coagulase Negative Staphylococcus (GC 4547) [3, 6] | MIC Coagulase Negative Staphylococcus (GC 4551) [3, 6] | MIC Staphylococcus aureus-SMITH (GC 4543) [3, 6] | MIC Staphylococcus aureus (ATCC 29213) ([3]; strain ATCC 29213) | MIC Staphylococcus aureus (ATCC 29213) [3, 8] | MIC Staphylococcus aureus (GC 3051) ([3]; strain GC 3051) | MIC Staphylococcus aureus (GC 3051) [3, 10] | MIC Staphylococcus aureus (GC 4541) ([3]; strain GC 4541) | MIC Staphylococcus aureus (GC 4541) [3, 12] | MIC Staphylococcus aureus (GC 4542) ([3]; strain GC 4542) | MIC Staphylococcus aureus (GC 4542) [3, 13] | MIC Staphylococcus aureus-SMITH (GC 4543) [3, 14] | MIC Coagulase Negative Staphylococcus (GC 4547) [3, 18] | MIC Coagulase Negative Staphylococcus (GC 4551) [3, 21]
0.25 µg/mL: MIC Streptococcus pneumoniae (GC 4565) [4, 6] | MIC Streptococcus pyogenes (GC 4563) [4, 6]
1 µg/mL: MIC Escherichia coli (GC 4560) [2, 7] | MIC Coagulase Negative Staphylococcus (GC 6257) [3, 6] | MIC Staphylococcus haemolyticus (GC 4546) [3, 6] | MIC Staphylococcus haemolyticus (GC 4546) [3, 17] | MIC Coagulase Negative Staphylococcus (GC 6257) [3, 22]
0.12 µg/mL: MIC Streptococcus pneumonine (ATCC 6301) [4, 6]
2 µg/mL: MIC Staphylococcus aureus (GC 1131) ([3]; strain GC 1131) | MIC Staphylococcus aureus (GC 1131) [3, 9] | MIC Staphylococcus aureus (GC 4544) ([3]; strain GC 4544) | MIC Staphylococcus aureus (GC 4544) [3, 15]
0.24 mg/kg: median effective dose (ED50), Staphylococcus aureus-SMITH (GC 4543) [5]
4 to 8 µg/mL: MIC Enterococccus avium (GC 4558) [1, 6] | MIC Enterococccus faecalis (ATCC 29212) [1, 6] | MIC Enterococccus faecalis (GC 2691) [1, 6] | MIC Enterococccus faecalis (GC 3059) [1, 6] | MIC Enterococccus faecalis (GC 4552) [1, 6] | MIC Enterococccus faecalis (GC 4553) [1, 6] | MIC Enterococccus faecalis (GC 4554) [1, 6] | MIC Enterococccus faecium (GC 2243) [1, 6] | MIC Enterococccus faecium (GC 4556) [1, 6] | MIC Enterococcus faecalis (GC 2242) [1, 6]
64 µg/mL: MIC Escherichia coli (ATCC 25922) [2, 7]
0.5 µg/mL: MIC Streptococcus agalactiae (GC 4564) [4, 6]
0.5 to 2 µg/mL: MIC Coagulase Negative Staphylococcus (GC 4548) [3, 6] | MIC Coagulase Negative Staphylococcus (GC 4548) [3, 19]
<2 to 4 µg/mL: MIC Staphylococcus aureus (GC 4545) ([3]; strain GC 4545)
2 to 4 µg/mL: MIC Enterococccus faecium (GC 4557) [1, 6] | MIC Staphylococcus aureus (GC 3053) ([3]; strain GC 3053) | MIC Staphylococcus aureus (GC 3053) [3, 11] | MIC Staphylococcus aureus (GC 4545) [3, 16]

CC(c1ccccc1)C1NC(=O)CNC(=O)C(CO)NC(=O)C(C(O)C2CNC(=N)N2C2OC(CO)C(O)C(O)C2O)NC(=O)C(C(O)C2CNC(=N)N2)NC(=O)C(Cc2ccc(OC3OC(CO)C(OC4OC5COC(c6ccc7c(c6)OCO7)OC5C(O)C4O)C(O)C3O)cc2)NC1=O (stereo not drawn) [Example 143, Cyclo[glycyl-β-methylphenylalanyl-O-[4-O-[4,6-O-(1,3-benzodioxol-5-ylmethylene)hexopyranosyl]hexopyranosyl]tyrosyl-3-(2-iminoimidazolidin-4-yl)seryl-3-(3-hexopyranosyl-2-iminoimidazolidin-4-yl)serylseryl]]
8 µg/mL: MIC Enterococcus faecalis (GC 2691) ([1]; strain GC 2691)
1 to 4 µg/mL: MIC Staphylococcus aureus (GC 4542) [3, 6] | MIC Staphylococcus aureus (GC 4542) [3, 13]
64 µg/mL: MIC Escherichia coli (GC 4559) ([2]; strain GC 4559)
2 to 8 µg/mL: MIC Enterococcus faecium (GC 4557) ([1]; strain GC 4557) | MIC Staphylococcus aureus (GC 4544) [3, 6] | MIC Staphylococcus aureus (GC 4544) [3, 15]
2 to 4 µg/mL: MIC Coagulase Negative Staphylococcus (GC 4551) [3, 6] | MIC Staphylococcus aureus (ATCC 29213) [3, 6] | MIC Staphylococcus aureus (GC 1131) [3, 6] | MIC Staphylococcus aureus (GC 3051) [3, 6] | MIC Staphylococcus aureus (GC 4541) [3, 6] | MIC Staphylococcus aureus (GC 4545) [3, 6] | MIC Staphylococcus aureus-SMITH (GC 4543) [3, 6] | MIC Staphylococcus aureus (ATCC 29213) [3, 8] | MIC Staphylococcus aureus (GC 1131) [3, 9] | MIC Staphylococcus aureus (GC 3051) [3, 10] | MIC Staphylococcus aureus (GC 4541) [3, 12] | MIC Staphylococcus aureus-SMITH (GC 4543) [3, 14] | MIC Staphylococcus aureus (GC 4545) [3, 16] | MIC Coagulase Negative Staphylococcus (GC 4551) [3, 21]
0.5 to 1 µg/mL: MIC Streptococcus agalactiae (GC 4564) ([4]; strain GC 4564)
0.28 mg/kg: median effective dose (ED50), Staphylococcus aureus-SMITH (GC 4543) [5]
4 to 8 µg/mL: MIC Staphylococcus aureus (GC 3053) [3, 6] | MIC Staphylococcus aureus (GC 3053) [3, 11]
0.5 to 2 µg/mL: MIC Staphylococcus haemolyticus (GC 4546) [3, 6] | MIC Staphylococcus haemolyticus (GC 4546) [3, 17]
1 µg/mL: MIC Coagulase Negative Staphylococcus (GC 4549) [3, 6] | MIC Coagulase Negative Staphylococcus (GC 4549) [3, 20]
>64 µg/mL: MIC Escherichia coli (ATCC 25922) ([2]; strain ATCC 25922)
1 to 2 µg/mL: MIC Escherichi coli (GC 4560) ([2]; strain GC 4560) | MIC Coagulase Negative Staphylococcus (GC 4547) [3, 6] | MIC Coagulase Negative Staphylococcus (GC 4548) [3, 6] | MIC Coagulase Negative Staphylococcus (GC 6257) [3, 6] | MIC Coagulase Negative Staphylococcus (GC 4547) [3, 18] | MIC Coagulase Negative Staphylococcus (GC 4548) [3, 19] | MIC Coagulase Negative Staphylococcus (GC 6257) [3, 22]
